Here are results for ten compounds from ChEMBL document CHEMBL1201862, “PubChem BioAssay data set” (2004).

Some test systems named below: NCI-H23; U-251; MDA-N; SK-OV-3; SN12C; HCC 2998; NCI-H522; NCI-H226; SW-620; SK-MEL-28; UACC-62; Hs-578T; MCF7; HT-29; Malme-3M; CAKI-1; HCT-15; HCT-116; DU-145; OVCAR-8.
Holding throughout (experiment): NCI anticancer screen, dose series, 48 h

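How tested: cells in 96-well plates exposed to compound for 48 hours at five concentrations. GI50 = concentration required for 50% inhibition of growth.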 The source made the active and inactive calls. No stated cut-off is given here; in the data, active = GI50 up to about 1.1 µM and inactive = higher.

For the compound `COC(=O)c1ccccc1C1CN=NC12Cc1c(C)c3c(c(C)c1C2=O)CCC3` (configuration not stated), the GI50 in the assay on NCI-H23 is 54.6 µM (inactive); in the assay with U-251, > 100 µM (inactive); in the assay on MDA-N it was > 100 µM (inactive); in the assay on SK-OV-3 it was > 100 µM (inactive); in the assay with SN12C it was > 100 µM (inactive); in the assay on HCC 2998, > 100 µM (inactive). Also, the GI50 in the assay with NCI-H522 is 33.7 µM (inactive); in the assay with NCI-H226 it was > 100 µM (inactive); in the assay with SW-620 it was > 100 µM (inactive); in the assay with SK-MEL-28, > 100 µM (inactive); in the assay on UACC-62 it was > 100 µM (inactive); with Hs-578T, > 100 µM (inactive). Besides, the GI50 in the assay with MCF7 is > 100 µM (inactive); with HT-29, 40.1 µM (inactive); with Malme-3M, > 100 µM (inactive); with CAKI-1, > 100 µM (inactive); in the assay with HCT-15, more than 100 µM; with HCT-116, 37.6 µM (inactive). The GI50 in the assay with DU-145 and with OVCAR-8 was > 100 µM (inactive) each time.
For the compound `C/C(=N\Nc1nc2ccccc2[nH]1)c1ccncn1`, the GI50 with NCI-H23 was 0.0973 µM (active); with U-251, 0.147 µM (active); with MDA-N, 0.698 µM (active); in the assay with SK-OV-3 it was 0.49 µM (active); in the assay with SN12C, 0.275 µM (active); in the assay with HCC 2998 it was 18.5 µM (inactive). Also, the GI50 was 0.104 µM (active) in the assay with NCI-H522; 0.0817 µM (active) in the assay with NCI-H226; 0.134 µM (active) with SW-620; 0.396 µM (active) in the assay with SK-MEL-28; 0.0764 µM (active) with UACC-62; 80 µM (inactive) in the assay on Hs-578T. The GI50 is 0.152 µM (active) in the assay on MCF7; 0.0818 µM (active) with HT-29; 0.138 µM (active) with Malme-3M; 0.123 µM (active) in the assay with CAKI-1; 0.161 µM in the assay with HCT-15; 0.113 µM (active) in the assay with HCT-116. Besides, the GI50 is 0.0843 µM (active) in the assay with DU-145 and 0.124 µM (active) in the assay on OVCAR-8.
Regarding `Nc1n[n+]2cc(-c3ccccc3)n(CC(=O)c3ccccc3)c2s1`, the GI50 is 20.6 µM (inactive) with NCI-H23; 16.1 µM (inactive) with U-251; 34.4 µM (inactive) with MDA-N; > 100 µM (inactive) with SK-OV-3; 42.6 µM (inactive) with SN12C; 15 µM (inactive) with HCC 2998. For the same compound, the GI50 in the assay on NCI-H522 was 13.3 µM (inactive); with NCI-H226 it was 32.4 µM (inactive); with SW-620, 23.2 µM (inactive); in the assay on UACC-62, 30.5 µM (inactive); in the assay with Hs-578T, 17 µM (inactive); in the assay with MCF7, 10.8 µM (inactive). Besides, the GI50 with HT-29 is 27.2 µM (inactive); with Malme-3M it was 12.2 µM (inactive); in the assay on CAKI-1, > 100 µM (inactive); with HCT-15, 44.7 µM; in the assay on HCT-116, 16.7 µM (inactive); in the assay with DU-145 it was 50.9 µM (inactive). Further, the GI50 in the assay on OVCAR-8 is 52 µM (inactive).
For the compound `N#CC(Nc1ccccc1)c1ccc(C(C#N)Nc2ccccc2)cc1` (configuration not stated), the GI50 with NCI-H23 is 41.5 µM (inactive); in the assay on U-251, 25.4 µM (inactive); with MDA-N it was 13.2 µM (inactive); with SK-OV-3, > 100 µM (inactive); in the assay on SN12C it was 46.8 µM (inactive); with HCC 2998, 30.3 µM (inactive). The GI50 with NCI-H522 was > 100 µM (inactive); in the assay with NCI-H226, > 100 µM (inactive); in the assay on SW-620, 20.2 µM (inactive); with SK-MEL-28, 41.2 µM (inactive); with UACC-62 it was 3.57 µM (inactive); in the assay on Hs-578T, > 100 µM (inactive). The GI50 in the assay with MCF7 is 29 µM (inactive); in the assay with HT-29 it was 20.8 µM (inactive); in the assay on Malme-3M, > 100 µM (inactive); in the assay with CAKI-1, 61.4 µM (inactive); with HCT-15 it was 18.2 µM; with HCT-116, 16.7 µM (inactive). Besides, the GI50 is 44.1 µM (inactive) with DU-145 and > 100 µM (inactive) with OVCAR-8.
Regarding `c1ccc2c(c1)Nc1nc3nonc3nc1N2`, the GI50 in the assay with NCI-H23, with U-251, in the assay with MDA-N, in the assay with SK-OV-3, in the assay on SN12C and in the assay on HCC 2998 was > 100 µM (inactive) in each case. The GI50 in the assay on NCI-H522, with NCI-H226, in the assay on SW-620, with SK-MEL-28, with UACC-62 and in the assay on Hs-578T was > 100 µM (inactive) in each case. Besides, the GI50 in the assay on MCF7 was > 100 µM (inactive); in the assay on HT-29, > 100 µM (inactive); in the assay with Malme-3M, > 100 µM (inactive); in the assay with CAKI-1 it was > 100 µM (inactive); in the assay with HCT-15, 29.4 µM; with HCT-116, > 100 µM (inactive). Besides, the GI50 in the assay with DU-145 and in the assay on OVCAR-8 was > 100 µM (inactive) throughout.
As to `COc1cc(CC(C)N)ccc1O` (configuration not stated), the GI50 with NCI-H23, in the assay with U-251, with MDA-N, with SK-OV-3, in the assay on SN12C and with HCC 2998 was > 100 µM (inactive) each time. Besides, the GI50 in the assay on NCI-H522, in the assay on NCI-H226, with SW-620, in the assay on SK-MEL-28, with UACC-62 and in the assay on Hs-578T was > 100 µM (inactive) throughout. Besides, the GI50 in the assay on MCF7 was > 100 µM (inactive); with HT-29, > 100 µM (inactive); in the assay on Malme-3M, > 100 µM (inactive); with CAKI-1, > 100 µM (inactive); in the assay with HCT-15, more than 100 µM; in the assay with HCT-116, > 100 µM (inactive). Besides, the GI50 with DU-145 and in the assay with OVCAR-8 was > 100 µM (inactive) each time.
With `Cc1ccc(NC(=O)CCc2nnc3s/c(=C\C=C\c4ccccc4)c(=O)n23)cc1`, the GI50 in the assay with NCI-H23 was > 100 µM (inactive); in the assay with U-251, 53.3 µM (inactive); in the assay on MDA-N, > 79.1 µM (inactive); in the assay on SK-OV-3, > 100 µM (inactive); in the assay with SN12C it was > 100 µM (inactive); in the assay with HCC 2998, > 100 µM (inactive). For the same compound, the GI50 is 37.8 µM (inactive) with NCI-H522; > 100 µM (inactive) in the assay on NCI-H226; > 100 µM (inactive) with SW-620; > 100 µM (inactive) in the assay on SK-MEL-28; 80.4 µM (inactive) in the assay on UACC-62; > 78 µM (inactive) with Hs-578T. In addition, the GI50 was > 71.4 µM (inactive) in the assay with MCF7; > 100 µM (inactive) in the assay on HT-29; > 100 µM (inactive) with Malme-3M; > 100 µM (inactive) in the assay on CAKI-1; more than 100 µM with HCT-15; > 100 µM (inactive) in the assay on HCT-116. In addition, the GI50 in the assay with DU-145 was > 100 µM (inactive); in the assay with OVCAR-8, 31.3 µM (inactive).
For `CCOC1NC(/N=C/c2ccc(OC)cc2)=C(C#N)C1C#N` (configuration not stated), the GI50 in the assay on NCI-H23 was 46 µM (inactive); with U-251 it was > 100 µM (inactive); in the assay with MDA-N, 49.2 µM (inactive); in the assay on SK-OV-3 it was 80.4 µM (inactive); with SN12C it was > 100 µM (inactive); in the assay with HCC 2998 it was > 100 µM (inactive). Further, the GI50 is 19.3 µM (inactive) in the assay with NCI-H522; > 100 µM (inactive) in the assay with NCI-H226; 50.9 µM (inactive) in the assay with SW-620; > 100 µM (inactive) in the assay with SK-MEL-28; 32.9 µM (inactive) in the assay on UACC-62; 47.5 µM (inactive) in the assay with Hs-578T. Also, the GI50 in the assay on MCF7 was > 100 µM (inactive); in the assay with HT-29, > 100 µM (inactive); in the assay on Malme-3M, 90.8 µM (inactive); in the assay with CAKI-1, > 100 µM (inactive); in the assay with HCT-15, 99.3 µM; in the assay with HCT-116, 63.1 µM (inactive). Further, the GI50 with DU-145 and with OVCAR-8 was > 100 µM (inactive) throughout.
Consider `COC(=O)c1ccc(NCc2cc(O)ccc2O)cc1O`, for which the GI50 in the assay with NCI-H23 was 9.46 µM (inactive); in the assay on U-251, 11.9 µM (inactive); with MDA-N, 10.7 µM (inactive); in the assay on SK-OV-3, 13.9 µM (inactive); with SN12C it was 8.38 µM (inactive); with HCC 2998, 13.8 µM (inactive). Besides, the GI50 is 0.405 µM (active) in the assay with NCI-H522; 14 µM (inactive) in the assay on NCI-H226; 6.55 µM (inactive) in the assay with SW-620; 16.4 µM (inactive) in the assay with SK-MEL-28; 13.1 µM (inactive) in the assay with UACC-62; 15.7 µM (inactive) in the assay with Hs-578T. Also, the GI50 with MCF7 was 6.67 µM (inactive); in the assay on HT-29 it was 17.2 µM (inactive); in the assay with Malme-3M, 16.4 µM (inactive); in the assay on CAKI-1 it was 6.78 µM (inactive); with HCT-15, 11.9 µM; with HCT-116, 17.5 µM (inactive). Also, the GI50 in the assay with DU-145 is 12.3 µM (inactive); in the assay with OVCAR-8, 3.29 µM (inactive).
With `O=C(NN=C(c1ccccc1)c1ccccc1)/C(O)=C/C(=O)c1ccc(Cl)cc1`, the GI50 in the assay with NCI-H23 is 23.2 µM (inactive); with U-251, 39.1 µM (inactive); with MDA-N it was 40.5 µM (inactive); with SK-OV-3 it was 73.3 µM (inactive); in the assay on SN12C, 27.9 µM (inactive); in the assay with HCC 2998 it was 39.5 µM (inactive). For the same compound, the GI50 with NCI-H522 is 13.5 µM (inactive); in the assay on NCI-H226, 41.2 µM (inactive); in the assay on UACC-62 it was 39.1 µM (inactive); in the assay with Hs-578T it was 27.2 µM (inactive); in the assay with MCF7, 28 µM (inactive); in the assay on HT-29 it was 44.3 µM (inactive). Further, the GI50 in the assay with Malme-3M was 20.7 µM (inactive); in the assay on CAKI-1, > 100 µM (inactive); with HCT-15, 24.7 µM; with HCT-116, 31.5 µM (inactive); in the assay with DU-145, 73.1 µM (inactive); in the assay on OVCAR-8, 30.1 µM (inactive).
